Measured values published in ChEMBL document CHEMBL1126932, “Mechanism-based inhibitors of prostaglandin omega-hydroxylase: (R)- and (S)-12-hydroxy-16-heptadecynoic acid and 2,2-dimethyl-12-hydroxy-16-heptadecynoic acid” (J Med Chem, 1993).

What follows are molecules tested against T1, Cytochrome P450 4A4 (Oryctolagus cuniculus, UniProt P10611) (assay: Inactivation of prostaglandin E1 omega-hydroxylase (Cytochrome P450 4A4) in rabbit lung).
T1 sequence (P10611 whole entry): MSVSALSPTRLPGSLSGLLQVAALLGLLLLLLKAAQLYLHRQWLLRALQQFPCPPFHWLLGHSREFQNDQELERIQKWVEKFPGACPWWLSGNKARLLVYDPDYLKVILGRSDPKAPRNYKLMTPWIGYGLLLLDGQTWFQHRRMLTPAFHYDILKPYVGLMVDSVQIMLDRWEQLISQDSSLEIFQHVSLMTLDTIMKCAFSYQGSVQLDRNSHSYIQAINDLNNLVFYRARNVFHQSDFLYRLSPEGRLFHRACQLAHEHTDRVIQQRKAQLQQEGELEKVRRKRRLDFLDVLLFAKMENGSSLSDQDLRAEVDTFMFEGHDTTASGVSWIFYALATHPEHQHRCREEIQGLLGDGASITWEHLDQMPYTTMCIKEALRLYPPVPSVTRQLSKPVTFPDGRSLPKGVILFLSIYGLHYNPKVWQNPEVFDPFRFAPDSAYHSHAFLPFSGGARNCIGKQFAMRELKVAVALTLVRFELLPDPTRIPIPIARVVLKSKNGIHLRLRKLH
Assay type: tissue-based
`C#CCCC[C@H](O)CCCCCCCCCCC(=O)O` gave a Ki of 3.6 µM. `C#CCCCC(O)CCCCCCCCCCC(=O)O` (racemic) was tested, and the Ki was 4.8 µM. `C#CCCCC(O)CCCCCCCCCC(C)(C)C(=O)O` (centres undefined) gave a Ki of 4.9 µM. With `C#CCCC[C@@H](O)CCCCCCCCCCC(=O)O` the Ki was 1.8 µM.
